Measurements: US20050148553A1, “Use of tigecycline, alone, or in combination with rifampin to treat osteomyelitis and/or septic arthritis” (priority 2003, published 2005)
Values after ≈ are worked out from the molar mass of the structure shown.

Legend:
[1] = Whole body autoradiography after 30-minute 3 mg/kg IV infusion of [^14C]-tigecycline; assay type: in vivo, Long-Evans rats
Description: Male Sprague-Dawley and Long-Evans rats were obtained from Charles River Breeding Laboratories, Raleigh, N.C., and were quarantined for at least one week prior to the start of the study. […] The dosing solution was diluted and radioassayed directly in Ultima Gold scintillation counting cocktail (Packard Inc.). […] All pumps were calibrated prior to the administration of the compound. Rats were anesthetized with isoflurane prior to cardiac puncture exsanguination at the prescribed times after dosing. Sprague-Dawley and Long-Evans rats were sacrificed one per time point at 0.5, 8.5, 24, 72, 168 and 336 hr post-dose. Immediately following euthanasia, each rat was totally immersed in a bath of hexane and dry ice (−75° C.) until frozen. Each carcass was dried and stored at −30° C. until embedded. […] Each frozen rat was sagitally sectioned at −20° C. A sufficient number of sections were collected to ensure sampling of all tissues of interest. The sections were dehydrated overnight in a cryochamber and then rapidly transferred to a dessicator containing CaSO4 to prevent condensation of atmospheric moisture while equilibrating to room temperature. The sections were mounted on cardboard and labeled with [^14C]-labeled black ink with a unique identification number. […] A small piece of Scotch tape was placed over the dried radioactive ink to prevent the contamination of the storage phosphor screens. Phosphor imaging plates, BAS-SR 2025 (Fuji Photo Film Co., Japan) were exposed to bright visible light for 20 minutes using an IP eraser (Raytest, USA Inc., New Castle, Del.) to remove background radiation. Sections and calibration blood standards were concurrently placed in direct contact with Ips and exposed for 7 days. All sections were stored at room temperature in a lead shielding box to minimize background levels. Phosphor images were generated using a Fujifilm BAS-5000 Bio-Imaging Analyzer and quantitated by MCID M2 Software, version 3.2 (Imaging Research Inc., St. Catherines, Ontario, Canada). The STDs and QCs were analyzed using the circular sampling tool in the MCID software program. Areas of interest in whole-body sections were manually outlined with the regional sampling tool to generate count data. Radioactive concentrations in select tissues were determined by digital analysis of the resulting autoradiograms on the basis of a calibration curve. […] The linear regression curve was then used to determine the concentration of unknown radioactivity of study samples. […] Blood samples were combusted using a Model 307 sample oxidizer (Packard Instrument Company). […] Research Triangle Park, N.C.), which applies a model-independent approach and standard procedures as described in Gibaldi and Perrier. Gibaldi, Pharmacokinetics, 1982. […] For IV infusion dosing, C30 min was the concentration at 30 minutes, the first sampling time point. The maximum plasma concentration (Cmax) and the corresponding time of peak concentration following IV administration were obtained directly by numerical inspection from the individual concentration-time data. The terminal half-life was calculated by the ratio of ln2/λz where λz is derived from the terminal slope of the concentration time curve. The area under the plasma concentration versus time curve from zero to infinity was calculated using the trapezoidal rule, where Clast is the last measurable plasma concentration. Tissue to plasma concentration ratios were calculated according to the following equation: Ctissue/Cplasma, where Ctissue equals the drug concentration in tissue (ng equiv./g), and Cplasma equals the drug concentration in plasma (ng equiv./g).

[2] = Mass balance study, 5 mg/kg intravenous dose; assay type: in vivo, Sprague-Dawley rats; conditions: male rats
[3] = test system: methicillin-resistant S. aureus; assay: microbe, parasite or virus in culture; assay type: cell-based, Staphylococcus aureus; conditions: Staphylococcus aureus, MRSA
Description: The minimum inhibitory concentrations (MIC) of tigecycline, vancomycin and rifampin were determined using an antibiotic two-fold tube-dilution method. The minimum bactericidal concentrations were also determined. The limits of sensitivity of this method were 25 μg/ml to 0.20 μg/ml.

[4] = test system: M. abcessus; assay: Susceptibility/MIC of patient isolate, compassionate use study; assay type: cell-based, Mycobacterium abscessus
[5] = test system: vancomycin resistant E. faecium; conditions: cited from earlier work

CN(C)c1cc(NC(=O)CNC(C)(C)C)c(O)c2c1C[C@H]1C[C@H]3[C@H](N(C)C)C(O)=C(C(N)=O)C(=O)[C@@]3(O)C(O)=C1C2=O [[^14C]-Tigecycline]
AUC ([1]; Blood): 21954 Ng eq hr/g
T1/2 ([1]; Blood): 62 h
Mean concentration of total radioactivity ([1]; Blood, 0.5 Hrs): 1296 ng equiv./g
Tissue:Plasma Ratio ([1]; Blood, 0.5 Hrs): 1.33
Mean concentration of total radioactivity ([1]; Blood, 24 Hrs): 340 ng equiv./g
Tissue:Plasma Ratio ([1]; Blood, 24 Hrs): 4.81
Mean concentration of total radioactivity ([1]; Blood, 72 Hrs): 11.8 ng equiv./g
Tissue:Plasma Ratio ([1]; Blood, 72 Hrs): 5.05
Mean concentration of total radioactivity ([1]; Blood, 168 Hrs): 2.72 ng equiv./g
Tissue:Plasma Ratio ([1]; Blood, 168 Hrs): 5.05
Mean concentration of total radioactivity ([1]; Blood, 336 Hrs): 1.24 ng equiv./g
AUC ([1]; Blood, first AUC column): 21843 Ng eq hr/g
AUC ([1]; Plasma): 12938 Ng eq hr/g
T1/2 ([1]; Plasma): 19 h
Mean concentration of total radioactivity ([1]; Plasma, 0.5 Hrs): 975 ng equiv./g
Tissue:Plasma Ratio ([1]; Plasma, 0.5 Hrs): 1.00
Mean concentration of total radioactivity ([1]; Plasma, 24 Hrs): 70.5 ng equiv./g
Tissue:Plasma Ratio ([1]; Plasma, 24 Hrs): 1.00
Mean concentration of total radioactivity ([1]; Plasma, 72 Hrs): 4.31 ng equiv./g
Tissue:Plasma Ratio ([1]; Plasma, 72 Hrs): 1.00
Mean concentration of total radioactivity ([1]; Plasma, 168 Hrs): <1.03 ng equiv./g
Tissue:Plasma Ratio ([1]; Plasma, 168 Hrs): 1.00
Mean concentration of total radioactivity ([1]; Plasma, 336 Hrs): <1.03 ng equiv./g
AUC ([1]; Plasma, first AUC column): 12923 Ng eq hr/g
AUC ([1]; Skin): 109296 Ng eq hr/g
Cmax ([1]; Skin): 1997 Ng equiv/g
T1/2 ([1]; Skin): 473 h
tissue concentration at 336 hours as % of Cmax ([1]; Skin): 8%
Mean concentration of total radioactivity ([1]; Skin, 0.5 Hrs): 2502 ng equiv./g
Tissue:Plasma Ratio ([1]; Skin, 0.5 Hrs): 2.05
Mean concentration of total radioactivity ([1]; Skin, 24 Hrs): 2363 ng equiv./g
Tissue:Plasma Ratio ([1]; Skin, 24 Hrs): 8.76
Mean concentration of total radioactivity ([1]; Skin, 72 Hrs): 1787 ng equiv./g
Tissue:Plasma Ratio ([1]; Skin, 72 Hrs): 179
Mean concentration of total radioactivity ([1]; Skin, 168 Hrs): 351 ng equiv./g
Tissue:Plasma Ratio ([1]; Skin, 168 Hrs): 179
Mean concentration of total radioactivity ([1]; Skin, 336 Hrs): 211 ng equiv./g
AUC ([1]; Skin, first AUC column): 58287 Ng eq hr/g
AUC ([1]; Uveal Tract): 233288 Ng eq hr/g
Cmax ([1]; Uveal Tract): 2502 Ng equiv/g
T1/2 ([1]; Uveal Tract): 201 h
tissue concentration at 336 hours as % of Cmax ([1]; Uveal Tract): 1%
Mean concentration of total radioactivity ([1]; Uveal Tract, 0.5 Hrs): 1997 ng equiv./g
Tissue:Plasma Ratio ([1]; Uveal Tract, 0.5 Hrs): 2.57
Mean concentration of total radioactivity ([1]; Uveal Tract, 24 Hrs): 124 ng equiv./g
Tissue:Plasma Ratio ([1]; Uveal Tract, 24 Hrs): 25.7
Mean concentration of total radioactivity ([1]; Uveal Tract, 72 Hrs): 96.5 ng equiv./g
Tissue:Plasma Ratio ([1]; Uveal Tract, 72 Hrs): 393
Mean concentration of total radioactivity ([1]; Uveal Tract, 168 Hrs): 74.8 ng equiv./g
Tissue:Plasma Ratio ([1]; Uveal Tract, 168 Hrs): 393
Mean concentration of total radioactivity ([1]; Uveal Tract, 336 Hrs): 19.3 ng equiv./g
AUC ([1]; Uveal Tract, first AUC column): 131346 Ng eq hr/g
T1/2 ([1]; Uveal Tract, listed as [^14C]-tigecycline): 20 h
recovery of radioactivity [2]: 89.4±2.50%

CN(C)c1cc(NC(=O)CNC(C)(C)C)c(O)c2c1C[C@H]1C[C@H]3[C@H](N(C)C)C(O)=C(C(N)=O)C(=O)[C@@]3(O)C(O)=C1C2=O [Tigecycline]
MBC ([3]; read-out: minimum bactericidal concentration (MBC)): 0.2 µg/mL (≈ 0.341 µM)
MIC ([3]; read-out: minimum inhibitory concentration (MIC), MRSA study strain, inoculum 10^6 CFU/ml): < 0.2 µg/mL
susceptibility of the organism ([4]; M. abscessus patient isolate): susceptible
MIC ([4]; Mycobacteroides abscessus, M. abcessus from a human patient, read-out: minimum inhibitory concentration): 0.25 µg/mL
MIC [5]: 0.125 µg/mL (≈ 0.213 µM)
